Two molecules from patent US20060194835A1, “Compositions and methods for treating or preventing flaviviridae infections” (priority 2005, published 2006) can be followed below.

In data set [1] the test system is BVDV. The experiment in a line: Protection of MDBK cells from BVDV-induced cytopathicity (CPE reduction, MTS/PMS). The settings on record: Bovine viral diarrhea virus isolates and strains, MDBK, 50% CPE reduction; MOI 0.01. It counts as cell-based, bovine viral diarrhea virus. A general note: Damage to the host cells serves as the signal in cytopathic effect assays.

A short description of data set [2]: Pharmacokinetics of orally administered celgosivir in rats (plasma castanospermine). The class given is in vivo, Male Sprague-Dawley rats. The settings on record: normal rats; loperamide 0.35 mg/kg. The method, then:
The purpose of this study was to evaluate the effect of an anti-diarrheal agent on the pharmacokinetics (PK) of orally administered celgosivir. In addition, the effect of anti-diarrheal agents on celgosivir PK was investigated. The pharmacokinetics of celgosivir was assessed by following the plasma profile of celgosivir's primary metabolite, castanospermine. By way of background, orally administered celgosivir, although well tolerated in humans, does produce side effects in the gastrointestinal tract, including flatulence and mild to moderate diarrhea. Loperamide hydrochloride, an anti-motility agent that is an active ingredient found in some over-the-counter medications used for symptomatic relief of acute and chronic diarrhea, was investigated for its effect on the PK of orally administered celgosivir. […]
At various time-points after celgosivir administration, blood samples were withdrawn from animals via the tail vein. Plasma samples were generated and stored frozen until analyzed. Plasma samples were analyzed for castanospermine, the major metabolite of celgosivir, using LC/MS. […] Celgosivir pharmacokinetics was assessed by following the plasma concentration of its primary metabolite, castanospermine. Pharmacokinetic parameters were calculated according to a two-compartment model with bio-exponential decay using the method of residuals. […]

Data set [3] deals with BVDV. The experiment in a line: Double combination checkerboard CPE assay, MacSynergy II and isobolograms. The class given is cell-based, bovine viral diarrhea virus. The method, then:
A double combination assay was performed using MDBK cells infected with BVDV in an inhibition of cytopathic effect (CPE) assay as described in Example 2. The double drug combinations were measured by creating a “checkerboard” of drug concentrations used on cell monolayers in microtiter plates, with one drug being titrated horizontally and the other drug titrated vertically, and each double combination being tested at least twice.
The EC50 values of a first test compound derived while in combination with a second test compound were plotted against the corresponding concentration of the second test compound to create an isobole (dose pair). All of the isoboles were plotted in an isobologram to determine the presence of synergy, antagonism or additivity for the combined test compounds. […] The line connecting the monotherapy EC50 values represents the theoretical additivity effect values for the two compounds.
In addition to generating isobolograms, the checkerboard data was imported into MacSynergy™ II software to graph the observed synergy (or additive or antagonism) volumes for the double combinations tested. Briefly, the calculated additive interactions were subtracted from the experimentally determined values to reveal the corresponding drug concentrations at which a synergistic (indicated by positive % values) or antagonistic (indicated by negative % values) effect is observed. The greater the positive percent volume observed, the greater the synergy between the two compounds. […] In contrast, any value about or less than −25 μM^2% or μM(IU/mL) % is indicative of a significant antagonistic effect. The data presented in Table 5 represent volumes of synergy or antagonism with 95% confidence. The confidence level was calculated using a Bonferroni adjustment as a conservative estimate of significance to statistically evaluate the data.

Data set [4] can be described thus: in vitro. The settings on record: bovine.
Data set [5] is described as follows: in vitro. The settings on record: bovine. This is another data set of the same source.
In data set [6] the test system is BVDV strain NADL. The experiment in a line: Inhibition of viral release from BVDV-infected MDBK cells (plaque titer). The settings on record: for EC50 / EC90: Bovine viral diarrhea virus isolates and strains, MDBK, 24 h.
Data set [7] concerns BVDV. The experiment in a line: Triple combination checkerboard CPE assay (celgosivir or castanospermine + interferon-α2b + ribavirin), MacSynergy II. The settings on record: for EC50: Bovine viral diarrhea virus isolates and strains, read-out: Average Celgosivir EC50. The class given is cell-based, bovine viral diarrhea virus. The protocol: Each double or triple combination was performed twice. The combination efficacy data were analyzed using the MacSynergy™ II software program as described herein.
Each double or triple combination was performed twice. The combination efficacy data were analyzed using the MacSynergy™ II software program as described herein. The EC50 for each of celgosivir and castanospermine was calculated from the triple combination studies described in Example 6.
Each double or triple combination was performed twice. The combination efficacy data were analyzed using the MacSynergy™ software program as described herein. The EC50 for interferon-α2b was calculated from the triple combination studies described in Example 6.

Data set [8] is described as follows: Drug cytotoxicity in uninfected MDBK cells (MTS/PMS). The settings on record: bovine.
Data set [9] can be described thus: Cytotoxicity of test compound in MDBK cells in the absence of viral infection (Example 1). The settings on record: bovine, MDBK cells, uninfected.

Each structure is given as a SMILES string.

For orientation: EC50 means the concentration giving half of the maximal effect. The term EC90 denotes the concentration needed for an effect of 90%. Turning to `CCCC(=O)O[C@H]1CN2CC[C@H](O)[C@@H]2[C@@H](O)[C@@H]1O` [Celgosivir, [1S-(1α,6β,7α,8β,8aβ)]-octahydro-1,6,7,8-indolizinetetrol 6-butanoate], the EC50 was 7.7 ± 3 µM in [1]; 2 ± 1.3 µM in data set [6]; roughly 6.5 µM in [7] (Ribavirin 0 μM, Interferon-α2b 0 IU/mL); 4.8 ± 0.7 µM in data set [7] (Ribavirin 0 μM, Interferon-α2b 0.7 IU/mL); 3.9 ± 0.9 µM in [7] (Ribavirin 0 μM, Interferon-α2b 2.2 IU/mL); 1.6 ± 0.6 µM in data set [7] (Ribavirin 0 μM, Interferon-α2b 6.7 IU/mL). Further, the EC50 in data set [7] (Ribavirin 0 μM, Interferon-α2b 20 IU/mL) was less than 0.4 µM; in data set [7] (Ribavirin 0.37 μM, Interferon-α2b 0.7 IU/mL), 4.3 ± 1 µM; in data set [7] (Ribavirin 0.37 μM, Interferon-α2b 2.2 IU/mL), 2.7 ± 1.3 µM; in data set [7] (Ribavirin 0.37 μM, Interferon-α2b 6.7 IU/mL) it was 1 ± 0.7 µM; in data set [7] (Ribavirin 0.37 μM, Interferon-α2b 20 IU/mL), less than 0.3 µM; in data set [7] (Ribavirin 1.1 μM, Interferon-α2b 0.7 IU/mL), 2.9 ± 0.9 µM. Further, the EC50 was 2.1 ± 0.2 µM in data set [7] (Ribavirin 1.1 μM, Interferon-α2b 2.2 IU/mL); less than 0.9 µM in [7] (Ribavirin 1.1 μM, Interferon-α2b 6.7 IU/mL); less than 0.3 µM in data set [7] (Ribavirin 1.1 μM, Interferon-α2b 20 IU/mL); less than 1 µM in data set [7] (Ribavirin 3.3 μM, Interferon-α2b 0.7 IU/mL); less than 0.3 µM in [7] (Ribavirin 3.3 μM, Interferon-α2b 2.2 IU/mL); less than 0.3 µM in data set [7] (Ribavirin 3.3 μM, Interferon-α2b 6.7 IU/mL). For the same molecule, in [7] (Ribavirin 3.3 μM, Interferon-α2b 20 IU/mL), the EC50 was less than 0.3 µM. Moreover, the “effect of concomitant anti-diarrheal agent on the PK of celgosivir” value in data set [2] is “no significant effect”. Also, the “fold reduction of EC50 of celgosivir” value is reported as 3 fold in data set [3] (at 2 μM ribavirin) and “more than 8 fold” in data set [3] (at 2.2 μM NM-107). For the same molecule, in [4], the CC50 is greater than 300 µM. The same molecule showed a CC50 at 24 h in data set [5] greater than 2000 µM. In data set [6], this molecule returned an EC90 of 7.6 ± 2.3 µM. For the same molecule, the “TI (Therapeutic Index, CC50/EC50)” value in data set [6] (MOI = 1) was greater than 1000. For the same molecule, the “dose-dependent reduction in EC50” value in [7] (upon the addition of increasing concentrations of interferon-α2b) is on record as “up to 26 fold”.

Turning to `NC(=O)c1ncn([C@@H]2O[C@H](CO)[C@@H](O)[C@H]2O)n1` [Ribavirin, ribavirin, reference compound], a half-maximal response in data set [1] (EC50) required 4.4 ± 2 µM. In addition, the CC50 in [8] is no less than 25 µM. The molecule also had a CC50 at 24 h in data set [9] of 250 µM. In addition, in [6], the midpoint of the response, the EC50, lay at 1.5 ± 1 µM and the EC90 stood at 5.7 ± 2.7 µM.
